The values below come from US5322858A, “N,N'-substituted imidodicarbonimidic diamides derived from hydroxylamines” (Jacobus Pharmaceutical Co. Inc., priority 1992, dated 1994).

≈ marks a conversion by molar mass, not a printed value.

One series has as its system M. avium (MAC). Put plainly: Broth dilution MIC against Mycobacterium avium complex isolates. Format: cell-based. The following applies: 168 h. On the procedure: (§1) Testing of new drugs for activity against Mycobacterial infections is carried out in vitro and in vivo in well defined laboratory procedures which have been widely published. The method used to test for biological activity against growing Mycobacterium avium complex (MAC), Mycobacterium tuberculosis (MTB) and Mycobacterium kanasii (MK) are described by A. H. Gonzalez et al. in J. Antimicrob. Chemother. 1989, 24:19-22; S. Majumder and M. H. Cynamon, Amer. Soc. for Microbiology Mtgs, U-4, May 1992, abstract.
(§2) Activity in vitro was determined against clinical isolates of MAC, MTB and MK using a broth dilution method. Mycobacteria were grown for several days in 7H10 broth, ph 6.6, with 10% OADC enrichment and 0.05% Tween 80. Serial two-fold dilutions of antimicrobial drugs were prepared in 7H10 broth at 128 μg/ml and less. Cultures containing a final concentration of approximately 2.5×10^4 to 6.3×10^5 CFU/ml were incubated on a rotary shaker at 37° C. for 7 days and read where the minimum inhibitory concentration was defined as the MIC at the lowest concentration without visual turbidity. JPC7766 in these studies was compared to known active antimicrobial drugs Proguanil (PG), Cycloguanil (CG), Sulfamethazine (SM) and/or Dapsone (DDS).

A further series relates to M. kanasii (MK). The series is described as follows: Broth dilution MIC against M. kanasii isolate. The series is classed as cell-based. Particulars: 168 h. How it is done:
as §1, §2

Another series concerns M. tuberculosis (MTB). Put plainly: Broth dilution MIC against M. tuberculosis isolates. The series is classed as cell-based. Particulars: Mycobacterium tuberculosis, 168 h. On the procedure: as §1, §2
In a further series the test system is P. berghei. Put plainly: P. berghei infection in mice, injected vs. oral doses, 50% cure (Table 2). From the text:
Comparative tests in vivo in mice against Plasmodium have been carried out. […] Premature deaths of animals (earlier than five days post infection) are considered as indications of toxicity.
These tests systems are described in detail in publications by L. Rane and D. S. Rane, 9th Int. […] Trop. Med. Malaria. (1973) 1:281 (#406) and (2) T. S. Osdedne, P. B. Russell and L. Rane, J. Med. Chem. 1967. 10:431.
In this methodology, groups of 5 or 10 mice are infected with a standard inoculum of a blood-induced P. berghei infection and are treated with a single subcutaneous dose ([…]) of test drug suspended in peanut oil or a single oral dose of test drug suspended in hexamethyl cellulose and Tween. The animals are then observed for a maximum of thirty days. […] Animals surviving for thirty days are considered cured.

The subject of series [1] is Pneumocystis carinii. Put plainly: Prevention of Pneumocystis carinii infection in immunosuppressed rats. Format: in vivo. Particulars: 125 mg/kg daily.
Method: In this method rats are immunosuppressed with high doses of glucocorticosteroids while being protected from bacterial infection by concurrent administration of the antibiotic tetracycline. In a standard evaluation animals are immunosuppressed with steroids and various doses of test compounds are administered for six weeks during which time unprotected animals will develop pneumocystis pneumonitis. The percentage of animals free of the disease represents the effectiveness of a selected dose of test drug.
A customary method to produce pneumocystis in the animals is to administer 2 mg of dexamethasone and 50 mg tetracycline hydrochloride per liter of drinking water. The test compounds are integrated in the food.
The subject of series [2] is Pneumocystis carinii. The following applies: 125 mg/kg; cited from earlier work.

Regarding `Cc1cc(C)nc(NS(=O)(=O)c2ccc(N)cc2)n1` [Sulfamethazine], the MIC against M. avium (MAC) (isolate MAC 101) is > 128 µg/mL; with M. avium (MAC) (isolate MAC FAR), 16 µg/mL (≈ 57.5 µM); with M. avium (MAC) (isolate MAC LPR), 32 µg/mL (≈ 115 µM); against M. kanasii (MK), 64 µg/mL (≈ 230 µM); against M. tuberculosis (MTB) (isolate MTB 311) it was 64 µg/mL (≈ 230 µM); in the series with M. tuberculosis (MTB) (H37RV, isolate MTB H37 Rv), 64 µg/mL (≈ 230 µM).

Take `CC1(C)N=C(N)N=C(N)N1c1ccc(Cl)cc1` [Cycloguanil]: the MIC in the series on M. avium (MAC) (isolate MAC LPR) was > 128 µg/mL; in the series with M. kanasii (MK) it was 64 µg/mL (≈ 254 µM); in the series with M. tuberculosis (MTB) (isolate MTB 311), 64 µg/mL (≈ 254 µM); in the series with M. tuberculosis (MTB) (H37RV, isolate MTB H37 Rv), 64 µg/mL (≈ 254 µM).

For the molecule `CC1(C)N=C(N)N=C(N)N1OCCCOc1cc(Cl)c(Cl)cc1Cl` [WR99210], in the series on P. berghei (Plasmodium berghei, in Mus musculus, sc, read-out: 50% cure, injected SQ ED-50), the ED50 worked out at 245 mg/kg. In the series on P. berghei (oral (PO), @ 640 mg/kg), the Cures result is “No Cures”.

`Nc1ccc(S(=O)(=O)c2ccc(N)cc2)cc1` [Dapsone] came in with an Efficacy with Pneumocystis carinii [1] of 100%. Moreover, the “# infected” value with Pneumocystis carinii [1] (infected/treated) is given as 0/10. The MIC in the series on M. avium (MAC) (isolate MAC 101) was found to be 16 µg/mL (≈ 64.4 µM); with M. avium (MAC) (isolate MAC FAR) it was 64 µg/mL (≈ 258 µM); in the series on M. avium (MAC) (isolate MAC LPR), 32 µg/mL (≈ 129 µM). For the same molecule, the protection from pneumocystis result in the series with Pneumocystis carinii [2] is reported as “fully effective”.

For `[H]/N=C(\N/C(=N/[H])Nc1ccc(Cl)cc1)NC(C)C` [Proguanil], the Toxicity result in the series on P. berghei (oral (PO), @ >160 mg/kg) was “Toxic”. Further, the “50% cures; oral PO ED-50” value in the series with P. berghei (single oral dose) was “No Cures”. The “50% cure; injected SQ ED-50” value in the series with P. berghei (subcutaneous, in peanut oil) is recorded as “NO CURES”. The results for the MIC with M. avium (MAC) (isolate MAC 101), with M. avium (MAC) (isolate MAC FAR) and with M. avium (MAC) (isolate MAC LPR) were > 128 µg/mL, 64 µg/mL (≈ 252 µM) and 128 µg/mL (≈ 504 µM), respectively.
